Source: ChEMBL document CHEMBL5380793, “Structure-Activity Relationship of Novel Pyrimidine Derivatives with Potent Inhibitory Activities against Mycobacterium tuberculosis” (J Med Chem, 2023)
In brackets after ≈: the same amount, converted by molar mass.

Legend:
[1] = system: Mycobacterium tuberculosis; test: Antitubercular activity against marker free autoluminescent Mycobacterium tuberculosis H37Ra assessed as reduction in relative light unit measured once a day for 6 days; type: functional; details: 144 h, time 6 day
[2] = Cytotoxicity against human HepG2 cells assessed as inhibition of cell growth incubated for 48 hrs by MTT assay; type: toxicity, cell-based
Staphylococcus aureus = test: Antibacterial activity against methicillin-resistant Staphylococcus aureus assessed as inhibition of bacterial growth; type: functional
[3] = system: Mycobacteroides abscessus; test: Antibacterial activity against Mycobacterium abscessus assessed as inhibition of bacterial growth; type: functional
[4] = system: Mycolicibacterium smegmatis; test: Antibacterial activity against Mycobacterium smegmatis assessed as inhibition of bacterial growth; type: functional
Escherichia coli = test: Antibacterial activity against Escherichia coli assessed as inhibition of bacterial growth; type: functional
[5] = system: Mycobacterium tuberculosis; test: Antibacterial activity against Mycobacterium tuberculosis H37Rv assessed as inhibition of bacterial growth incubated for 6 days by microplate alamar blue assay; type: functional; details: 144 h, time 6 day
[6] = system: Mycobacterium tuberculosis; test: Antibacterial activity against Mycobacterium tuberculosis clinical isolate K4 assessed as inhibition of bacterial growth incubated for 6 days by microplate alamar blue assay; type: functional; details: K4, 144 h, time 6 day
[7] = system: Mycobacterium tuberculosis; test: Antibacterial activity against Mycobacterium tuberculosis clinical isolate K5 assessed as inhibition of bacterial growth incubated for 6 days by microplate alamar blue assay; type: functional; details: K5, 144 h, time 6 day
[8] = system: Mycobacterium tuberculosis; test: Antibacterial activity against Mycobacterium tuberculosis clinical isolate K12 assessed as inhibition of bacterial growth incubated for 6 days by microplate alamar blue assay; type: functional; details: K12, 144 h, time 6 day
[9] = system: Mycobacterium tuberculosis; test: Antibacterial activity against Mycobacterium tuberculosis clinical isolate K16 assessed as inhibition of bacterial growth incubated for 6 days by microplate alamar blue assay; type: functional; details: K16, 144 h, time 6 day
[10] = Toxicity in BALB/c mouse assessed as mouse death at 800 mg/kg, po measured for 2 weeks; type: organism-based; details: in vivo, 336 h
[11] = Toxicity in BALB/c mouse assessed as body weight loss at 800 mg/kg, po measured for 2 weeks; type: organism-based; details: in vivo, 336 h
[12] = Toxicity in BALB/c mouse assessed as increase in AST level at 800 mg/kg, po measured at 14 days; type: organism-based; details: in vivo, 336 h, time 14 day
[13] = Toxicity in BALB/c mouse assessed as increase in uric acid level at 800 mg/kg, po measured at 14 days; type: organism-based; details: in vivo, 336 h, time 14 day
[14] = Toxicity in BALB/c mouse assessed as reduction in ALP level at 800 mg/kg, po measured at 14 days; type: organism-based; details: in vivo, 336 h, time 14 day
[15] = Toxicity in BALB/c mouse assessed as reduction in LDH level at 800 mg/kg, po measured at 14 days; type: organism-based; details: in vivo, 336 h, time 14 day
[16] = Toxicity in BALB/c mouse assessed as histopathological changes in kidney at 800 mg/kg, po measured at 14 days by H and E staining based analysis; type: organism-based; details: in vivo, 336 h, time 14 day
[17] = Cmax in Sprague-Dawley rat at 5 mg/kg, iv measured for 24 hrs by LC-MS analysis; type: ADME, organism-based; design: time 24 hrs, dose 5 mg/kg, route iv; details: in vivo
[18] = Cmax in Sprague-Dawley rat at 15 mg/kg, po measured for 24 hrs by LC-MS analysis; type: ADME, organism-based; design: dose 15 mg/kg, time 24 hrs, route po; details: in vivo
[19] = Tmax in Sprague-Dawley rat at 15 mg/kg, po measured for 24 hrs by LC-MS analysis; type: ADME, organism-based; details: in vivo
[20] = Half life in Sprague-Dawley rat at 5 mg/kg, iv measured for 24 hrs by LC-MS analysis; type: ADME, organism-based; details: in vivo
[21] = Apparent clearance during terminal phase in Sprague-Dawley rat at 5 mg/kg, iv measured for 24 hrs by LC-MS analysis; type: ADME, organism-based; details: in vivo
[22] = AUC(0 to t) in Sprague-Dawley rat at 5 mg/kg, iv measured for 24 hrs by LC-MS analysis; type: ADME, organism-based; design: dose 5 mg/kg, time 24 hrs, route iv; details: in vivo
[23] = AUC(0 to t) in Sprague-Dawley rat at 15 mg/kg, po measured for 24 hrs by LC-MS analysis; type: ADME, organism-based; design: dose 15 mg/kg, time 24 hrs, route po; details: in vivo
[24] = Oral bioavailability in Sprague-Dawley rat at 15 mg/kg measured for 24 hrs by LC-MS analysis; type: ADME, organism-based; details: in vivo
[25] = system: Mycobacterium tuberculosis; test: Antitubercular activity against autoluminescent Mycobacterium tuberculosis H37Ra infected in BALB/c mouse assessed as reduction in relative light unit at 300 mg/kg, po administered once daily by oral gavage for 5 days and measured every 2 days by luminometer based analysis; type: functional; details: time 5 day
[26] = biological target: T1, Dihydrofolate reductase (Mycobacterium tuberculosis) (UniProt P9WNX1); test: Inhibition of Mycobacterium tuberculosis DHFR at 10 uM relative to control
T1 sequence (whole entry): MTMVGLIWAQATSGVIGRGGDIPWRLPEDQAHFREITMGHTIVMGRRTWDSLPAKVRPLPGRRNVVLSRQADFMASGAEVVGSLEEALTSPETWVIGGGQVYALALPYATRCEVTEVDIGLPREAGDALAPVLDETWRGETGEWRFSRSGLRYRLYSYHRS

[27] = biological target: T1, Dihydrofolate reductase (Mycobacterium tuberculosis); test: Inhibition of Mycobacterium tuberculosis DHFR at 100 uM relative to control
[28] = biological target: T2, Serine/threonine-protein kinase PknB (Mycobacterium tuberculosis) (UniProt P9WI81); test: Binding affinity to Mycobacterium tuberculosis PknB assessed as thermal stability by measuring melting temperature at 100 uM incubated for 0.5 hrs by SYPRO orange dye based differential scanning fluorimetry analysis (reference value: 59 degreeC)
T2 sequence (whole entry): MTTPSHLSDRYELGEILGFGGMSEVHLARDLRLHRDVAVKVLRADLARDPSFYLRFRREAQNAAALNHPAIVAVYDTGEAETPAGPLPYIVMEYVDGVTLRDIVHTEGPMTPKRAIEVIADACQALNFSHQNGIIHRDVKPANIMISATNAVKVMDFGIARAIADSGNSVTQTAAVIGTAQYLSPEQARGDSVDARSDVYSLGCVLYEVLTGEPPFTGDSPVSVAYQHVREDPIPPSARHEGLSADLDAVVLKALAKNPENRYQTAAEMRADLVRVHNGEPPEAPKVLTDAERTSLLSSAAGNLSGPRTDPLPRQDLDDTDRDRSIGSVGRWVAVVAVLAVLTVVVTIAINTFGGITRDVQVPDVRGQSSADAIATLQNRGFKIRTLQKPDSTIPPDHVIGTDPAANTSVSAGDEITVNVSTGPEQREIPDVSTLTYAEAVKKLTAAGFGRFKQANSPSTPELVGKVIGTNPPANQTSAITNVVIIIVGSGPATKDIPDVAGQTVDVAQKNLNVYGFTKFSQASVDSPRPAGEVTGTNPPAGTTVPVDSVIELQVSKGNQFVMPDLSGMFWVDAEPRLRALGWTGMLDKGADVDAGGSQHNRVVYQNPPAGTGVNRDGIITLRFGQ

[29] = biological target: T2, Serine/threonine-protein kinase PknB (Mycobacterium tuberculosis); test: Binding affinity to Mycobacterium tuberculosis PknB assessed as thermal stability by measuring change in melting temperature at 100 uM incubated for 0.5 hrs by SYPRO orange dye based differential scanning fluorimetry analysis
[30] = biological target: T2, Serine/threonine-protein kinase PknB (Mycobacterium tuberculosis); test: Binding affinity to Mycobacterium tuberculosis PknB assessed as gibbs free energy at 600 uM by ITC analysis
[31] = biological target: T3, Serine/threonine-protein kinase PknB (Mycobacterium tuberculosis, UniProt P9WI81); test: Binding affinity to Mycobacterium tuberculosis PknB assessed as dissociation constant at 600 uM by ITC analysis
T3 sequence (P9WI81 whole entry): T2 sequence (whole entry)

In the case of Cc1cc(Nc2nc(-c3ccccc3)ncc2Cl)c(OC(C)C)cc1C1CCNCC1, the MIC [1] is reported as 0.5 µg/mL (≈ 1.14 µM), the IC50 at 48 h [2] is reported as 3.1 µM and the MIC (Staphylococcus aureus) is reported as 4 µg/mL (≈ 9.15 µM). For the same compound, the MIC [3] was 4 µg/mL (≈ 9.15 µM), the MIC [4] was 4 µg/mL (≈ 9.15 µM) and the MIC (Escherichia coli) was greater than 16 µg/mL. The MIC [5] was 0.5 µg/mL (≈ 1.14 µM), the MIC [6] was 0.5 µg/mL (≈ 1.14 µM) and the MIC [7] was 1 µg/mL (≈ 2.29 µM). The MIC [8] was 0.5 µg/mL (≈ 1.14 µM), the MIC [9] was 1 µg/mL (≈ 2.29 µM) and the Activity [10] was “Non-Toxic”. For the same compound, the Activity [11] was “Non-Toxic”, the Activity [12] was “Toxic” and the Activity [13] was “Toxic”. For the same compound, the Activity [14] was “Toxic”, the Activity [15] was “Toxic” and the Activity [16] was “Toxic”. The Cmax [17] was 595 ng/mL, the Cmax [18] was 108 ng/mL and the Tmax [19] was greater than 24 h. For the same compound, the half-life [20] was 26.2 h, the CLz/F [21] was 25 mL/min/kg and the AUC(0-t) at 24 h [22] was 1690 ng·h/mL. It also gave an AUC(0-t) at 24 h [23] of 2080 ng·h/mL, a bioavailability [24] of 40.7% and an Activity [25] of 0.5 log10RLU. For the same compound, the inhibition [26] was 4.5%, the inhibition [27] was 7.1% and the Tm [28] was 54 °C. The ΔTm [29] was -5 °C, the deltaG [30] was -3.1 kcal/mol and the Kd [31] was 9.4 µM.
